# Patent publication US8329674B2, “Film forming dental compositions and related methods” (3M Innovative Properties Company, priority 2007, dated 2012)
# Counter-ions that a name gives are not always drawn.
# How the values were obtained:
# Type in all cases: cell-based
# [1] = test system: Streptococcus mutans culture (ATCC 25175); experiment: Quantitative Biofilm Inhibition Test; conditions: 1 weight percent compound, broth with 1.0 weight percent sucrose, approx. twenty hours at 37° C., average OD at 550 nm as percentage of control (100%); for activity at 1 % w/w: Streptococcus mutans, ATCC25175, 20 h, read-out: OD Ratio
# Procedure: Compounds of the dental compositions of the invention, and comparative compounds, were evaluated for biofilm inhibition activity. Composite dental restorative (available under the trade designation “FILTEK SUPREME” from 3M ESPE Dental Products, St. Paul, Minn.) was placed in a 15 millimeter by 1 millimeter stainless steel die. […] While the die containing the composite restorative was under compression, the composite was irradiated for two minutes using a Model ACE light source (available from SCHOTT North America, Inc., Auburn, N.Y.). The discs of cured composite restorative were then further cured using a Model UniXS light box (available from Heraeus Kulzer, Inc., Armonk, N.Y.) for 1.5 minutes.
# The samples were incubated at 37° C. for approximately twenty hours, after which time the cured discs were removed from the broth and were gently rinsed with water. Each disc was placed in a separate test tube containing five milliliters of 1M aqueous sodium hydroxide solution, and each test tube was then sonicated for two minutes using a model SH1012-40-8 ultrasonic generator (manufactured by Branson Ultrasonics Corp., Danbury, Conn.) for two minutes to dislodge biofilm on the disc. The optical absorbance (optical density) of each aqueous sodium hydroxide solution was then measured at 550 nm using a Model ULTROSPEC III UV-visible spectrophotometer (manufactured by Pharmacia AB, Uppsala, Sweden). For each compound of the dental composition, five discs were separately incubated in broth and were evaluated separately to provide five optical density measurements. The average of the five optical density measurements was then calculated. […] The average optical density of the control or comparative samples was determined as described above. […] The ratio was considered to be proportional to the average amount of biofilm on the five cured discs, i.e., relatively low average optical density ratio was considered to be indicative of inhibition of biofilm formation. The ratio for the control was 100%.
# (§1) The Quantitative Biofilm Inhibition Test was carried out using five compounds of the dental composition and eleven comparative compounds, each at a concentration of 1 weight percent. […] In addition, the Qualitative Biofilm Inhibition Test was carried out for each Example and Comparative Example, in which each disc was visually examined before it was placed in the tube containing the aqueous sodium hydroxide solution.
# [2] = test system: Streptococcus mutans culture (ATCC 25175); experiment: Biofilm Inhibition Test: concentration of compound to inhibit biofilm formation at varied sucrose; conditions: tested at 50 or 150 millimolar
# Procedure: Compounds of the dental compositions of the invention, and comparative compounds, were evaluated for biofilm inhibition activity. Composite dental restorative (available under the trade designation “FILTEK SUPREME” from 3M ESPE Dental Products, St. Paul, Minn.) was placed in a 15 millimeter by 1 millimeter stainless steel die. The open ends of the die were then covered with polyester film and the die was subjected to a pressure of 68.95 MPa using a hydraulic press. While the die containing the composite restorative was under compression, the composite was irradiated for two minutes using a Model ACE light source (available from SCHOTT North America, Inc., Auburn, N.Y.). The discs of cured composite restorative were then further cured using a Model UniXS light box (available from Heraeus Kulzer, Inc., Armonk, N.Y.) for 1.5 minutes.
# The cured discs of composite restorative were then immersed in ten milliliters of Streptococcus mutans culture (ATCC 25175; 10^6 CFU/mL) prepared in brain heart infusion broth that contained 1.0 weight percent sucrose and 1 weight percent of a compound of the dental composition. The samples were incubated at 37° C. for approximately twenty hours, after which time the cured discs were removed from the broth and were gently rinsed with water. Each disc was placed in a separate test tube containing five milliliters of 1M aqueous sodium hydroxide solution, and each test tube was then sonicated for two minutes using a model SH1012-40-8 ultrasonic generator (manufactured by Branson Ultrasonics Corp., Danbury, Conn.) for two minutes to dislodge biofilm on the disc. The optical absorbance (optical density) of each aqueous sodium hydroxide solution was then measured at 550 nm using a Model ULTROSPEC III UV-visible spectrophotometer (manufactured by Pharmacia AB, Uppsala, Sweden). For each compound of the dental composition, five discs were separately incubated in broth and were evaluated separately to provide five optical density measurements. The average of the five optical density measurements was then calculated. […] The average optical density of the control or comparative samples was determined as described above. The ratio, expressed as a percentage, of the average optical density for each compound sample to the average optical density for a control sample was calculated by dividing the average optical density for each compound sample by the average optical density for a control sample and multiplying the result by one hundred. The ratio was considered to be proportional to the average amount of biofilm on the five cured discs, i.e., relatively low average optical density ratio was considered to be indicative of inhibition of biofilm formation. The ratio for the control was 100%.
# During the procedure for the Quantitative Biofilm Inhibition Test, each cured disc was visually examined after it was removed from the broth (and rinsed with water) and before it was placed in a test tube containing five milliliters of 1M aqueous sodium hydroxide solution. The presence or absence of visible biofilm on a disc was noted.
# The Biofilm Inhibition Test was carried out, using four compounds of the dental composition, in broth containing 1.0, 2.5, or 5.0 weight percent sucrose and the exemplary compounds of the dental composition at a concentration of either 50 millimolar or 150 millimolar. In Table 2, the millimolar concentration of compound that inhibited biofilm formation is given for each concentration of sucrose. An entry of “n/t” means that the compound was not tested in broth containing the corresponding concentration of sucrose.
# Streptococcus mutans = experiment: Bacterial Kill Rate Test
# Procedure: Compounds of the dental compositions of the invention were evaluated for extent of bacterial kill in culture. Overnight cultures of Streptococcus mutans in brain heart infusion broth (10^6 CFU/mL) was mixed with a 0.1 weight percent, 0.5 weight percent, or 1.0 weight percent aqueous solution of each compound of the dental composition. After a period of 2, 5, or 10 minutes, 1.0 mL of the mixture was transferred via pipette into a first tube containing 9.0 mL of Letheen broth to provide a 10^−1 dilution. The contents of the tube were mixed using a vortex mixer. A 1.0 mL aliquot of this sample was transferred via pipette into a second tube containing 9.0 mL of Letheen broth to provide a 10^−2 dilution. A 0.1 mL aliquot of each dilution was plated and spread in duplicate on sheep blood agar in Petri dishes, using a “hockey stick” applicator, to provide 10^−2 and 10^−3 dilutions, respectively, on each plate. The plates were incubated at 37° C. for a period of 48 to 72 hours, and then the colony forming units were counted. The CFU counts were compared and the log reduction in the counts were calculated. In Table 3, the bacteria count reduction (log reduction) is the difference between the log of the initial bacteria count and the log of the bacteria count after 2, 5, and 10 minutes.
# [3] = test system: Streptococcus mutans culture (ATCC 25175); experiment: Qualitative Biofilm Inhibition Test; parameters: key: +: refers to a visual assessment that a compound inhibited biofilm formation; −: refers to a visual assessment that either a compound did not inhibit biofilm formation, or that bacteria grew in the culture broth; conditions: 1 weight percent compound; visible biofilm on disc after incubation and rinse
# Procedure: as §1, with “During the procedure for the Quantitative Biofilm Inhibition Test, each cured disc was visually examined after it was removed from the broth (and rinsed with water) and before it was placed in a test tube containing five milliliters of 1M aqueous sodium hydroxide solution. The presence or absence of visible biofilm on a disc was noted. The” for “The”
Compound,OD Ratio [1] [%],Concentration of Compound to Inhibit Biofilm Formation ([2]; 1 wt% Sucrose) [mM],Concentration of Compound to Inhibit Biofilm Formation ([2]; 5 wt% Sucrose) [mM],"Bacteria Count Reduction (log reduction) (Streptococcus mutans; 0.1 wt % compound, 2 min.)","Bacteria Count Reduction (log reduction) (Streptococcus mutans; 0.1 wt % compound, 5 min.)","Bacteria Count Reduction (log reduction) (Streptococcus mutans; 0.1 wt % compound, 10 min.)","Bacteria Count Reduction (log reduction) (Streptococcus mutans; 0.5 wt % compound, 2 min.)","Bacteria Count Reduction (log reduction) (Streptococcus mutans; 0.5 wt % compound, 5 min.)","Bacteria Count Reduction (log reduction) (Streptococcus mutans; 0.5 wt % compound, 10 min.)","Bacteria Count Reduction (log reduction) (Streptococcus mutans; 1.0 wt % compound, 2 min.)","Bacteria Count Reduction (log reduction) (Streptococcus mutans; 1.0 wt % compound, 5 min.)","Bacteria Count Reduction (log reduction) (Streptococcus mutans; 1.0 wt % compound, 10 min.)",Visual Assessment [3],activity at 1 % w/w [1] [%],Concentration of Compound to Inhibit Biofilm Formation ([2]; 2.5 wt% Sucrose) [mM]
"N[C@H]1C(O)O[C@H](CO)[C@@H](O)[C@@H]1O (stereo partly drawn) [Glucosamine Sulfate, D-glucosamine]",2,50,150,0.95,0.75,0.87,0.78,0.80,0.81,0.95,0.89,0.97,+,–,–
"N[C@H]1C(O)O[C@H](COP(=O)(O)O)[C@@H](O)[C@@H]1O (stereo partly drawn) [Glucosamine-6-Phosphate, D-glucosamine-6-phosphate]",–,50,–,0.99,0.88,1.06,0.95,1.11,1.23,1.12,1.41,2.09,+,2,–
"N[C@@H]1C(O)O[C@H](CO)[C@@H](O)[C@@H]1O (stereo partly drawn) [Mannosamine HCl, D-mannosamine]",–,50,50,1.01,0.82,0.95,0.96,0.98,1.00,0.96,1.09,0.99,+,0,50
